What was measured:
Test in all cases: relative viability (nuclei count vs DMSO), 5 days (fraction); higher = more cells survive
NCI-H2170 = system: NCI-H2170
Outline: (§1)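 Nuclei were stained with Hoechst during a one-step fixation (final 0.05% Triton X-100, 1% formaldehyde, 1 ug/ml Hoechst) carried out 5 days after dosing, then counted on 4× images. The cells, lung cancer lines in 1536-well plates, had been dosed by pin tool the day after seeding with one drug alone or a fixed anchor-drug dose plus five library-drug doses (not always all listed) in √10 steps. Relative viability is the nuclei count in treated wells divided by that in vehicle wells, and each value is the median of duplicate plates.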

EMC-BAC-2 = system: EMC-BAC-2
Outline: as §1

NCI-H1993 = system: NCI-H1993
Outline: as §1

PC-3 [JPC-3] = system: PC-3 [JPC-3]
Outline: as §1

NCI-H1975 = system: NCI-H1975
Outline: as §1

LCLC-97TM1 = system: LCLC-97TM1
Outline: as §1

NCI-H1944 = system: NCI-H1944
Outline: as §1

NCI-H1793 = system: NCI-H1793
Outline: as §1

NCI-H1666 = system: NCI-H1666
Outline: as §1

PC-14 = system: PC-14
Outline: as §1

NCI-H522 = system: NCI-H522
Outline: as §1

NCI-H647 = system: NCI-H647
Outline: as §1

NCI-H727 = system: NCI-H727
Outline: as §1

NCI-H460 = system: NCI-H460
Outline: as §1

NCI-H2126 = system: NCI-H2126
Outline: as §1

NCI-H1755 = system: NCI-H1755
Outline: as §1

NCI-H2347 = system: NCI-H2347
Outline: as §1

Question: How did the relative viability (NCI-H2170; first compound 0.2 µM) turn out when `COCC1(CO)C(=O)C2CCN1CC2` (configuration not stated) [PRIMA-1MET] + NC(=O)Nc1cc(-c2cccc(F)c2)sc1C(=O)N[C@H]1CCCNC1 [AZD7762] (partner 0.2 µM) was run?
Answer: The relative viability was 1.06.

Question: What about the relative viability (NCI-H2170; first compound 0.6325 µM) of the same molecule?
Answer: Its relative viability is 0.604.

Question: What about the relative viability (NCI-H2170; first compound 2 µM) of the same molecule?
Answer: The relative viability was 0.644.

Question: And the relative viability (NCI-H2170; first compound 6.325 µM)?
Answer: Its relative viability is 1.

Question: And the relative viability (NCI-H2170; first compound 20 µM)?
Answer: Its relative viability is 0.836.

Question: And the relative viability (EMC-BAC-2; first compound 0.2 µM)?
Answer: Its relative viability is 1.34.

Question: And the relative viability (EMC-BAC-2; first compound 0.6325 µM)?
Answer: The relative viability was 1.07.

Question: What about the relative viability (EMC-BAC-2; first compound 2 µM) of the same molecule?
Answer: The relative viability was 0.989.

Question: And the relative viability (EMC-BAC-2; first compound 6.325 µM)?
Answer: The relative viability was 1.12.

Question: What about the relative viability (EMC-BAC-2; first compound 20 µM) of the same molecule?
Answer: The relative viability was 1.01.

Question: And the relative viability (NCI-H1993; first compound 0.2 µM)?
Answer: The relative viability was 0.476.

Question: And the relative viability (NCI-H1993; first compound 2 µM)?
Answer: The relative viability was 0.726.

Question: And the relative viability (NCI-H1993; first compound 6.325 µM)?
Answer: The relative viability was 0.783.

Question: What about the relative viability (NCI-H1993; first compound 20 µM) of the same molecule?
Answer: Its relative viability is 0.716.

Question: What about the relative viability (PC-3 [JPC-3]; first compound 0.2 µM) of the same molecule?
Answer: Its relative viability is 1.

Question: What about the relative viability (PC-3 [JPC-3]; first compound 0.6325 µM) of the same molecule?
Answer: Its relative viability is 0.797.

Question: What about the relative viability (PC-3 [JPC-3]; first compound 2 µM) of the same molecule?
Answer: The relative viability was 0.811.

Question: And the relative viability (PC-3 [JPC-3]; first compound 6.325 µM)?
Answer: Its relative viability is 0.904.

Question: And the relative viability (PC-3 [JPC-3]; first compound 20 µM)?
Answer: Its relative viability is 0.672.

Question: What about the relative viability (NCI-H1975; first compound 0.2 µM) of the same molecule?
Answer: Its relative viability is 0.807.

Question: What about the relative viability (NCI-H1975; first compound 0.6325 µM) of the same molecule?
Answer: Its relative viability is 0.648.

Question: And the relative viability (NCI-H1975; first compound 2 µM)?
Answer: The relative viability was 0.651.

Question: What about the relative viability (NCI-H1975; first compound 6.325 µM) of the same molecule?
Answer: The relative viability was 0.811.

Question: And the relative viability (NCI-H1975; first compound 20 µM)?
Answer: The relative viability was 0.181.

Question: What about the relative viability (LCLC-97TM1; first compound 0.2 µM) of the same molecule?
Answer: Its relative viability is 0.268.

Question: What about the relative viability (LCLC-97TM1; first compound 0.6325 µM) of the same molecule?
Answer: The relative viability was 0.226.

Question: And the relative viability (LCLC-97TM1; first compound 2 µM)?
Answer: Its relative viability is 0.212.

Question: What about the relative viability (LCLC-97TM1; first compound 6.325 µM) of the same molecule?
Answer: Its relative viability is 0.336.

Question: And the relative viability (LCLC-97TM1; first compound 20 µM)?
Answer: Its relative viability is 0.166.

Question: And the relative viability (NCI-H1944; first compound 0.2 µM)?
Answer: Its relative viability is 0.661.

Question: What about the relative viability (NCI-H1944; first compound 0.6325 µM) of the same molecule?
Answer: The relative viability was 0.43.

Question: What about the relative viability (NCI-H1944; first compound 2 µM) of the same molecule?
Answer: The relative viability was 0.381.

Question: And the relative viability (NCI-H1944; first compound 6.325 µM)?
Answer: The relative viability was 0.533.

Question: And the relative viability (NCI-H1944; first compound 20 µM)?
Answer: The relative viability was 0.511.

Question: And the relative viability (NCI-H1793; first compound 0.2 µM)?
Answer: Its relative viability is 0.408.

Question: And the relative viability (NCI-H1793; first compound 0.6325 µM)?
Answer: The relative viability was 0.651.

Question: What about the relative viability (NCI-H1793; first compound 6.325 µM) of the same molecule?
Answer: Its relative viability is 0.685.

Question: And the relative viability (NCI-H1793; first compound 20 µM)?
Answer: Its relative viability is 0.382.

Question: And the relative viability (NCI-H1666; first compound 0.2 µM)?
Answer: Its relative viability is 0.841.

Question: And the relative viability (NCI-H1666; first compound 0.6325 µM)?
Answer: Its relative viability is 0.688.

Question: And the relative viability (NCI-H1666; first compound 2 µM)?
Answer: The relative viability was 0.798.

Question: And the relative viability (NCI-H1666; first compound 6.325 µM)?
Answer: The relative viability was 0.817.

Question: What about the relative viability (NCI-H1666; first compound 20 µM) of the same molecule?
Answer: Its relative viability is 0.728.

Question: And the relative viability (PC-14; first compound 0.2 µM)?
Answer: Its relative viability is 0.407.

Question: What about the relative viability (PC-14; first compound 0.6325 µM) of the same molecule?
Answer: Its relative viability is 0.386.

Question: What about the relative viability (PC-14; first compound 2 µM) of the same molecule?
Answer: Its relative viability is 0.319.

Question: And the relative viability (PC-14; first compound 6.325 µM)?
Answer: The relative viability was 0.387.

Question: What about the relative viability (PC-14; first compound 20 µM) of the same molecule?
Answer: Its relative viability is 0.178.

Question: What about the relative viability (NCI-H522; first compound 0.2 µM) of the same molecule?
Answer: The relative viability was 0.788.

Question: And the relative viability (NCI-H522; first compound 0.6325 µM)?
Answer: The relative viability was 0.823.

Question: And the relative viability (NCI-H522; first compound 2 µM)?
Answer: The relative viability was 0.838.

Question: What about the relative viability (NCI-H522; first compound 6.325 µM) of the same molecule?
Answer: The relative viability was 0.598.

Question: And the relative viability (NCI-H522; first compound 20 µM)?
Answer: The relative viability was 0.283.

Question: And the relative viability (NCI-H647; first compound 0.2 µM)?
Answer: The relative viability was 0.578.

Question: And the relative viability (NCI-H647; first compound 0.6325 µM)?
Answer: Its relative viability is 0.434.

Question: What about the relative viability (NCI-H647; first compound 2 µM) of the same molecule?
Answer: The relative viability was 0.38.

Question: What about the relative viability (NCI-H647; first compound 6.325 µM) of the same molecule?
Answer: The relative viability was 0.383.

Question: And the relative viability (NCI-H647; first compound 20 µM)?
Answer: Its relative viability is 0.137.

Question: What about the relative viability (NCI-H727; first compound 0.2 µM) of the same molecule?
Answer: The relative viability was 0.505.

Question: And the relative viability (NCI-H727; first compound 0.6325 µM)?
Answer: The relative viability was 0.62.

Question: And the relative viability (NCI-H727; first compound 6.325 µM)?
Answer: The relative viability was 0.421.

Question: And the relative viability (NCI-H727; first compound 20 µM)?
Answer: The relative viability was 0.349.

Question: What about the relative viability (NCI-H460; first compound 0.2 µM) of the same molecule?
Answer: The relative viability was 0.705.

Question: What about the relative viability (NCI-H460; first compound 0.6325 µM) of the same molecule?
Answer: The relative viability was 0.382.

Question: And the relative viability (NCI-H460; first compound 2 µM)?
Answer: The relative viability was 0.659.

Question: What about the relative viability (NCI-H460; first compound 6.325 µM) of the same molecule?
Answer: The relative viability was 0.703.

Question: And the relative viability (NCI-H460; first compound 20 µM)?
Answer: The relative viability was 0.251.

Question: What about the relative viability (NCI-H2126; first compound 0.2 µM) of the same molecule?
Answer: Its relative viability is 1.05.

Question: And the relative viability (NCI-H2126; first compound 0.6325 µM)?
Answer: The relative viability was 1.02.

Question: And the relative viability (NCI-H2126; first compound 2 µM)?
Answer: The relative viability was 0.975.

Question: What about the relative viability (NCI-H2126; first compound 6.325 µM) of the same molecule?
Answer: Its relative viability is 1.02.

Question: What about the relative viability (NCI-H2126; first compound 20 µM) of the same molecule?
Answer: The relative viability was 0.978.

Question: And the relative viability (NCI-H1755; first compound 0.2 µM)?
Answer: Its relative viability is 0.414.

Question: What about the relative viability (NCI-H1755; first compound 0.6325 µM) of the same molecule?
Answer: Its relative viability is 0.4.

Question: And the relative viability (NCI-H1755; first compound 2 µM)?
Answer: Its relative viability is 0.392.

Question: And the relative viability (NCI-H1755; first compound 6.325 µM)?
Answer: Its relative viability is 0.557.

Question: And the relative viability (NCI-H1755; first compound 20 µM)?
Answer: Its relative viability is 0.446.

Question: What about the relative viability (NCI-H2347; first compound 0.2 µM) of the same molecule?
Answer: Its relative viability is 0.709.

Question: And the relative viability (NCI-H2347; first compound 0.6325 µM)?
Answer: The relative viability was 0.668.

Question: And the relative viability (NCI-H2347; first compound 2 µM)?
Answer: The relative viability was 0.569.

Question: And the relative viability (NCI-H2347; first compound 6.325 µM)?
Answer: Its relative viability is 0.761.

Question: And the relative viability (NCI-H2347; first compound 20 µM)?
Answer: The relative viability was 0.525.
